According to ChEMBL document CHEMBL1147761, “Novel 1,3-dipropyl-8-(1-heteroarylmethyl-1H-pyrazol-4-yl)-xanthine derivatives as high affinity and selective A2B adenosine receptor antagonists” (Bioorg Med Chem Lett, 2006):

Legend:
Adenosine receptor A2b = biological target: T1, Adenosine receptor A2b (Homo sapiens, UniProt P29275); assay: Displacement of [3H]ZM-241385 from Adenosine A2B receptor expressed in HEK cells; format: cell-based, HEK293
T1 sequence (P29275 whole entry): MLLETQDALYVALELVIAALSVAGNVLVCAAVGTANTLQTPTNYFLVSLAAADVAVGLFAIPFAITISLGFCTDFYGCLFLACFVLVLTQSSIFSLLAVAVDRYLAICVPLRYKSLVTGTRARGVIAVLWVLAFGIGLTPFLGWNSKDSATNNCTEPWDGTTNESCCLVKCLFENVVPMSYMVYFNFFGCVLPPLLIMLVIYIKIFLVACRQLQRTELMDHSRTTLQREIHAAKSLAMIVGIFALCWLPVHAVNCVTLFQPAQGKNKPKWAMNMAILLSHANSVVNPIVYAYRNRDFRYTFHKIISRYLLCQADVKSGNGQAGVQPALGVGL

Adenosine receptor A1 = biological target: T2, Adenosine receptor A1 (Homo sapiens, UniProt P30542); assay: Displacement of [3H]CPX from Adenosine A1 receptor expressed in CHO cells; format: cell-based
T2 sequence (P30542 whole entry): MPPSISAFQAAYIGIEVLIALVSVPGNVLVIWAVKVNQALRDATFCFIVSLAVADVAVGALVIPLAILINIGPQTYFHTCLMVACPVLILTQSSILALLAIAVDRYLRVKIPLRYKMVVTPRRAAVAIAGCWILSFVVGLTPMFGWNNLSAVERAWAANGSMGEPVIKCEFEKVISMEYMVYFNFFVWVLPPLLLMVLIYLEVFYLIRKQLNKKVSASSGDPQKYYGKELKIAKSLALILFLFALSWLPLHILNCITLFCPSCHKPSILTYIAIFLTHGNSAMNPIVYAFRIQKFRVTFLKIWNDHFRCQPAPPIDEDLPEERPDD

Adenosine receptor A2a = Adenosine receptor A2a (Homo sapiens, UniProt P29274); assay: Displacement of [3H]ZM-241385 from Adenosine A2A receptor expressed in HEK cells; format: cell-based, HEK293
Sequence of Adenosine receptor A2a (P29274 whole entry): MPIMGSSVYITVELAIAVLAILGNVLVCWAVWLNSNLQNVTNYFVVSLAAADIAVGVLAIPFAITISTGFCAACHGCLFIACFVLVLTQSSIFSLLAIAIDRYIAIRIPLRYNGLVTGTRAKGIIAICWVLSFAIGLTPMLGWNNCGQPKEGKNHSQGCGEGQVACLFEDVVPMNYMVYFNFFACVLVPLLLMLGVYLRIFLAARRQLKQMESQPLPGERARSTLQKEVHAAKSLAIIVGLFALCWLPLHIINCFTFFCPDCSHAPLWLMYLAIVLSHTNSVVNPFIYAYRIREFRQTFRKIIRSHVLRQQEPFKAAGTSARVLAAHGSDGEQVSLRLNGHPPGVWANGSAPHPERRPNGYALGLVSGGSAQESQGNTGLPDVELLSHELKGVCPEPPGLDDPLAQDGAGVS

Adenosine receptor A3 = biological target: T3, Adenosine receptor A3 (Homo sapiens, UniProt P0DMS8); assay: Displacement of [125I]AB-MECA from Adenosine A3 receptor expressed in CHO cells; format: cell-based
T3 sequence (P0DMS8 whole entry): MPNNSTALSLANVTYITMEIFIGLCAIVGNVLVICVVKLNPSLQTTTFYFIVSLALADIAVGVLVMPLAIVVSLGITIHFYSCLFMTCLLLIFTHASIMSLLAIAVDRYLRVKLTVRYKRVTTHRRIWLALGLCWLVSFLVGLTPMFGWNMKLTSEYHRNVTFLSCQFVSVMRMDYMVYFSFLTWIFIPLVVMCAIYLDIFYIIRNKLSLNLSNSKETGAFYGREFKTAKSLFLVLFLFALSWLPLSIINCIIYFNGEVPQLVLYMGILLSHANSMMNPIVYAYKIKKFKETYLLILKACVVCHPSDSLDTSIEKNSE

[1] = biological target: Adenosine receptors; A1 & A2b (Homo sapiens) (UniProt P30542+P29275); assay: Selectivity of adenosine A1 receptor over adenosine A2B receptor; format: protein assay
[2] = biological target: Adenosine A2 receptor (Homo sapiens) (UniProt P29275+P29274); assay: Selectivity of adenosine A2A receptor over adenosine A2B receptor; format: protein assay
[3] = biological target: Adenosine receptors; A2b & A3 (Homo sapiens) (UniProt P29275+P0DMS8); assay: Selectivity of adenosine A3 receptor over adenosine A2B receptor; format: protein assay
[4] = Oral bioavailability in rat administered at 1 mg/kg; format: ADME, organism-based; conditions: in vivo
[5] = AUC in rat administered at 1 mg/kg; format: ADME, organism-based; parameters: dose 1 mg/kg; conditions: plasma
[6] = Half life in rat administered at 1 mg/kg; format: ADME, organism-based; parameters: dose 1 mg/kg; conditions: in vivo

| SMILES | Ki (Adenosine receptor A2b) [nM] | Ki (Adenosine receptor A1) [nM] | Ki (Adenosine receptor A2a) [nM] | Ki (Adenosine receptor A3) [nM] | Ratio Ki [1] | Ratio Ki [2] | Ratio Ki [3] | bioavailability [4] [%] | AUC [5] [ng·h/mL] | half-life [6] [h] |
| --- | --- | --- | --- | --- | --- | --- | --- | --- | --- | --- |
| CCCn1c(=O)c2nc(-c3cnn(Cc4nc(-c5ccc(Cl)cc5)no4)c3)[nH]c2n(CCC)c1=O | 21 | 740 | 1800 | 400 | 35 | 85 | 19 | 22 | 2330 | 1.5 |
| CCCn1c(=O)c2nc(-c3cnn(Cc4noc(-c5ccccc5OC)n4)c3)[nH]c2n(CCC)c1=O | 83 | 930 | 3400 | > 8300 | 11 | 40 | > 100 |  |  |  |
| CCCn1c(=O)c2nc(-c3cnn(Cc4noc(-c5ccc(Cl)cc5)n4)c3)[nH]c2n(CCC)c1=O | 39 | 2900 | > 5000 | > 8300 | 74 | > 128 | > 213 |  |  |  |
| CCCn1c(=O)c2nc(-c3cnn(Cc4noc(-c5ccc(C(F)(F)F)cc5)n4)c3)[nH]c2n(CCC)c1=O | 21 | > 6000 | > 5000 | 1300 | > 285 | > 238 | 61 |  |  |  |
| CCCn1c(=O)c2nc(-c3cnn(Cc4noc(-c5cccc(Cl)c5)n4)c3)[nH]c2n(CCC)c1=O | 134 | 3000 | > 5000 | 3000 | 22 | > 37 | 22 |  |  |  |
| CCCn1c(=O)c2nc(-c3cnn(Cc4cc(-c5cccc(Cl)c5)on4)c3)[nH]c2n(CCC)c1=O | 163 | 4600 | > 5000 | 4400 | 28 | > 30 | 27 |  |  |  |
| CCCn1c(=O)c2nc(-c3cnn(Cc4nc(-c5cccc(C(F)(F)F)c5)no4)c3)[nH]c2n(CCC)c1=O | 42 | 3500 | > 5000 | 960 | 83 | > 119 | 22 |  |  |  |
| CCCn1c(=O)c2nc(-c3cnn(Cc4nc(-c5ccccc5Cl)no4)c3)[nH]c2n(CCC)c1=O | 19 | 2500 | 2500 | 490 | 130 | 130 | 25 |  |  |  |
| CCCn1c(=O)c2nc(-c3cnn(Cc4cc(-c5cccc(OC)c5)on4)c3)[nH]c2n(CCC)c1=O | 131 | 3500 | > 5000 | > 5000 | 27 | > 38 | > 38 |  |  |  |
| CCCn1c(=O)c2[nH]c(-c3cnn(Cc4noc(-c5ccccc5)n4)c3)nc2n(CCC)c1=O | 21 | 1000 | 1800 | 630 | 47 | 85 | 30 |  |  |  |
| CCCn1c(=O)c2nc(-c3cnn(Cc4nc(-c5ccccc5C(F)(F)F)no4)c3)[nH]c2n(CCC)c1=O | 74 | 530 | > 5000 | 340 | 7 | > 67 | 4 |  |  |  |
